Test results reported in patent US20250042922A1, “KRAS MODULATING COMPOUNDS” (priority 2023, published 2025).

Tests used:
[1] = test system: cellular pERK in Kuramochi (WT KRAS) cells; assay: Cell based pERK assay, Kuramochi; conditions: Kuramochi (WT KRAS), 2 hours incubation, HTRF phospho-ERK1/2; read-out: Kuramochi pERK EC50
Description: (§1) Compounds were tested in a 384-well assay format for their ability to inhibit cellular pERK in Kuramochi (WT KRAS), MIA-PaCa-2 (KRAS-G12C), ASPC-1 (KRAS G12D), and NCI-H441 (KRAS-G12V) cell-lines. Compounds were serially diluted (1:3) in DMSO. On day −1, 80 μL of cells were plated per well in the 384 well tissue-culture plates (Greiner: Cat #781080) to seed 5000 cells per wells of AsPC-1 or 7500 cells of MIA-PaCa-2, NCI-H441, and Kuramochi cell lines in RPMI (Corning: Cat #10-040-CM) with 10% fetal bovine serum (FBS) (HyClone: Cat #SH30071-03) and 1× penicillin-streptomycin-glutamate (PSG) (Corning: Cat #30-009-CI) for […] and Kuramochi cell lines and DMEM (Corning: Cat #15-018-CM) with 10% FBS and 1×PSG for MIA-PaCa-2 cell line. The plates were then incubated overnight at 37° C. and 5% CO2. On day 0, 400 nL of compound/well was added into the cell plates and mixed 5 times by pipetting using a Beckmann Biomek FX. The cell plates were then incubated for 2 hours at 37° C. and 5% CO2. HTRF Advanced Phospho-ERK1/2 (THR202/TYR204) Detection Kits (PerkinElmer: Cat #64AERPEG) were used to prepare the lysis and detection solution according to manufacturer protocol. Following the 2 hour incubation, 70 μL of medium was aspirated from the plates and 10 uL of lysis and detection solution was added to the plates using a Biotek EL406 washer and dispenser. Plates were sealed and stored overnight at room temperature. HTRF ratio (665 nm/615 nm) was read by Envision multimode reader (PerkinElmer) the next day. The TR-FRET ratios were normalized to a positive (saturating concentration of known inhibitor) and negative (DMSO) control and plotted against the log of compound concentration.

[2] = test system: cellular pERK in MIA-PaCa-2 (KRAS-G12C) cells; assay: Cell based pERK assay, MIA-PaCa-2; conditions: Homo sapiens; MIA-PaCa-2 (KRAS-G12C), 2 hours incubation, HTRF phospho-ERK1/2; read-out: MIAPaCa2 pERK EC50
Description: as §1

[3] = test system: cellular pERK in NCI-H441 (KRAS-G12V) cells; assay: Cell based pERK assay, NCI-H441; conditions: Homo sapiens; NCI-H441 (KRAS-G12V), 2 hours incubation, HTRF phospho-ERK1/2; read-out: H441 PERK EC50
Description: as §1

[4] = test system: cellular pERK in ASPC-1 (KRAS G12D) cells; assay: Cell based pERK assay, ASPC-1; conditions: Homo sapiens, ASPC1; ASPC-1 (KRAS G12D), 2 hours incubation, HTRF phospho-ERK1/2; read-out: AsPC1 pERK EC50
Description: as §1

CCc1c(F)ccc2cc(O)cc(-c3nc4c5c(nc(OC[C@@]67CCCN6C[C@H](F)C7)nc5c3F)N3C[C@@]5(F)CC[C@H](N5)[C@H]3CC4)c12 [Example 2-1, 4-((5aR,6S,9S)-1,9-difluoro-12-(((2R,7aS)-2-fluorotetrahydro-1H-pyrrolizin-7a(5H)-yl)methoxy)-4,5,5a,6,7,8,9,10-octahydro-3,10a,11,13,14-pentaaza-6,9-methanonaphtho[1,8-ab]heptalen-2-yl)-5-ethyl-6-fluoronaphthalen-2-ol]
EC50 [1]: 1.41 nM | EC50 [2]: 3.01 nM | EC50 [3]: 4.44 nM | EC50 [4]: 55.5 nM

C#Cc1c(F)ccc2cc(O)cc(-c3nc4c5c(nc(OC[C@@]67CCCN6C[C@H](F)C7)nc5c3F)N3C[C@@]5(F)CC[C@](F)(N5)[C@H]3CC4)c12 [Example 3-1, 5-ethynyl-6-fluoro-4-((5aR,6R,9S)-1,6,9-trifluoro-12-(((2R,7aS)-2-fluorotetrahydro-1H-pyrrolizin-7a(5H)-yl)methoxy)-4,5,5a,6,7,8,9,10-octahydro-3,10a,11,13,14-pentaaza-6,9-methanonaphtho[1,8-ab]heptalen-2-yl)naphthalen-2-ol]
EC50 [1]: 1.13 nM | EC50 [2]: 0.89 nM | EC50 [3]: 1.25 nM | EC50 [4]: 3.27 nM

C#Cc1c(F)ccc2cc(O)cc(-c3nc4c5c(nc(OC[C@@]67CCCN6C[C@H](F)C7)nc5c3F)N3C[C@@]5(F)CC[C@](F)(N5)[C@H]3CCC4)c12 [Example 4-1, 5-ethynyl-6-fluoro-4-((6aR,7R,10S)-1,7,10-trifluoro-13-(((2R,7aS)-2-fluorotetrahydro-1H-pyrrolizin-7a(5H)-yl)methoxy)-5,6,6a,7,8,9,10,11-octahydro-4H-3,11a,12,14,15-pentaaza-7,10-methanocyclohepta[4,5]cycloocta[1,2,3-de]naphthalen-2-yl)naphthalen-2-ol]
EC50 [1]: 1.4 nM | EC50 [2]: 0.49 nM | EC50 [3]: 0.17 nM | EC50 [4]: 1.34 nM

C#Cc1c(F)ccc2cc(N)cc(-c3nc4c5c(nc(OCC67CCCN6CCC7)nc5c3F)N3C[C@@]5(F)CC[C@](F)(N5)[C@H]3CCC4)c12 [Example 4-6, 5-ethynyl-6-fluoro-4-((6aR,7R,10S)-1,7,10-trifluoro-13-((tetrahydro-1H-pyrrolizin-7a(5H)-yl)methoxy)-5,6,6a,7,8,9,10,11-octahydro-4H-3,11a,12,14,15-pentaaza-7,10-methanocyclohepta[4,5]cycloocta[1,2,3-de]naphthalen-2-yl)naphthalen-2-amine]
EC50 [1]: 1.98 nM | EC50 [2]: 1.35 nM | EC50 [3]: 6.45 nM | EC50 [4]: 30.9 nM

C#Cc1c(F)ccc2cc(O)cc(-c3nc4c5c(nc(OCC67CCCN6CCC7)nc5c3F)N3C[C@@]5(F)CC[C@](F)(N5)[C@@H]3[C@@H](C)C4)c12 [Example 4-10, 5-ethynyl-6-fluoro-4-((5S,5aS,6R,9S)-1,6,9-trifluoro-5-methyl-12-((tetrahydro-1H-pyrrolizin-7a(5H)-yl)methoxy)-4,5,5a,6,7,8,9,10-octahydro-3,10a,11,13,14-pentaaza-6,9-methanonaphtho[1,8-ab]heptalen-2-yl)naphthalen-2-ol]
EC50 [1]: 11.6 nM | EC50 [2]: 0.243 nM | EC50 [3]: 3.2 nM | EC50 [4]: 5.93 nM

C#Cc1c(F)ccc2cc(O)cc(-c3nc4c5c(nc(OC[C@@]67CCCN6C[C@H](F)C7)nc5c3F)N3C[C@@]5(F)CC[C@H](N5)[C@H]3C=C4C)c12 [Example 4-15, 4-((5aR,6S,9S)-1,9-difluoro-12-(((2R,7aS)-2-fluorotetrahydro-1H-pyrrolizin-7a(5H)-yl)methoxy)-4-methyl-5a,6,7,8,9,10-hexahydro-3,10a,11,13,14-pentaaza-6,9-methanonaphtho[1,8-ab]heptalen-2-yl)-5-ethynyl-6-fluoronaphthalen-2-ol]
EC50 [1]: 4.42 nM | EC50 [2]: 4.05 nM | EC50 [3]: 21.8 nM | EC50 [4]: 98.3 nM

C#Cc1c(F)ccc2cc(O)cc(-c3nc4c5c(nc(OC[C@@]67CCCN6C[C@H](F)C7)nc5c3F)N3C[C@@]5(F)CC[C@](F)(N5)[C@H]3CO4)c12 [Example 4-16, 5-ethynyl-6-fluoro-4-((5aR,6R,9S)-1,6,9-trifluoro-12-(((2R,7aS)-2-fluorotetrahydro-1H-pyrrolizin-7a(5H)-yl)methoxy)-5a,6,7,8,9,10-hexahydro-5H-4-oxa-3,10a,11,13,14-pentaaza-6,9-methanonaphtho[1,8-ab]heptalen-2-yl)naphthalen-2-ol]
EC50 [1]: 147 nM | EC50 [2]: 157 nM | EC50 [3]: > 770 nM | EC50 [4]: > 1000 nM

C#Cc1c(F)ccc2cc(N)cc(-c3nc4c5c(nc(OC[C@@]67CCCN6C[C@H](F)C7)nc5c3F)N3C[C@@]5(F)CC[C@](F)(N5)[C@@H]3CC4)c12 [Example 4-19, 5-ethynyl-6-fluoro-4-((5aS,6R,9S)-1,6,9-trifluoro-12-(((2R,7aS)-2-fluorotetrahydro-1H-pyrrolizin-7a(5H)-yl)methoxy)-4,5,5a,6,7,8,9,10-octahydro-3,10a,11,13,14-pentaaza-6,9-methanonaphtho[1,8-ab]heptalen-2-yl)naphthalen-2-amine]
EC50 [1]: 0.92 nM | EC50 [2]: 0.235 nM | EC50 [3]: 1.08 nM | EC50 [4]: 5.17 nM

C#Cc1c(F)ccc2cc(O)cc(-c3nc4c5c(nc(OC[C@@]67CCCN6C[C@H](F)C7)nc5c3F)N3C[C@@]5(F)CC[C@](F)(N5)[C@@H]3CC4)c12 [Example 4-20, 5-ethynyl-6-fluoro-4-((5aS,6R,9S)-1,6,9-trifluoro-12-(((2R,7aS)-2-fluorotetrahydro-1H-pyrrolizin-7a(5H)-yl)methoxy)-4,5,5a,6,7,8,9,10-octahydro-3,10a,11,13,14-pentaaza-6,9-methanonaphtho[1,8-ab]heptalen-2-yl)naphthalen-2-ol]
EC50 [1]: 1.8 nM | EC50 [2]: 0.081 nM | EC50 [3]: 0.616 nM | EC50 [4]: 0.735 nM

Oc1cc(-c2nc3c4c(nc(OCC56CCCN5CCC6)nc4c2F)N2C[C@@]4(F)CC[C@](F)(N4)[C@H]2CCC3)c2c(Cl)c(F)ccc2c1 [Example 4-27, 5-chloro-6-fluoro-4-((6aR,7R,10S)-1,7,10-trifluoro-13-((tetrahydro-1H-pyrrolizin-7a(5H)-yl)methoxy)-5,6,6a,7,8,9,10,11-octahydro-4H-3,11a,12,14,15-pentaaza-7,10-methanocyclohepta[4,5]cycloocta[1,2,3-de]naphthalen-2-yl)naphthalen-2-ol]
EC50 [1]: 2.58 nM | EC50 [2]: 3.03 nM | EC50 [3]: 13.8 nM | EC50 [4]: 64.3 nM

C#Cc1c(F)ccc2cc(N)cc(-c3nc4c5c(nc(OCC67CCCN6CCC7)nc5c3F)N3C[C@@]5(F)CC[C@](F)(N5)[C@@H]3CC4)c12 [Example 4-34, 5-ethynyl-6-fluoro-4-((5aS,6R,9S)-1,6,9-trifluoro-12-((tetrahydro-1H-pyrrolizin-7a(5H)-yl)methoxy)-4,5,5a,6,7,8,9,10-octahydro-3,10a,11,13,14-pentaaza-6,9-methanonaphtho[1,8-ab]heptalen-2-yl)naphthalen-2-amine]
EC50 [1]: 3.34 nM | EC50 [2]: 0.511 nM | EC50 [3]: 2.75 nM | EC50 [4]: 20.9 nM

C#Cc1c(F)c(F)cc2cc(N)cc(-c3nc4c5c(nc(OCC67CCCN6CCC7)nc5c3F)N3C[C@@]5(F)CC[C@](F)(N5)[C@@H]3CC4)c12 [Example 4-35, 5-ethynyl-6,7-difluoro-4-((5aS,6R,9S)-1,6,9-trifluoro-12-((tetrahydro-1H-pyrrolizin-7a(5H)-yl)methoxy)-4,5,5a,6,7,8,9,10-octahydro-3,10a,11,13,14-pentaaza-6,9-methanonaphtho[1,8-ab]heptalen-2-yl)naphthalen-2-amine]
EC50 [1]: 3.69 nM | EC50 [2]: 0.787 nM | EC50 [3]: 5.32 nM | EC50 [4]: 33.7 nM

C#Cc1c(F)ccc2cc(N)cc(-c3nc4c5c(nc(OC[C@@]67CCCN6CC(=C)C7)nc5c3F)N3C[C@@]5(F)CC[C@](F)(N5)[C@H]3CCC4)c12 [Example 4-38, 5-ethynyl-6-fluoro-4-((6aR,7R,10S)-1,7,10-trifluoro-13-(((S)-2-methylenetetrahydro-1H-pyrrolizin-7a(5H)-yl)methoxy)-5,6,6a,7,8,9,10,11-octahydro-4H-3,11a,12,14,15-pentaaza-7,10-methanocyclohepta[4,5]cycloocta[1,2,3-de]naphthalen-2-yl)naphthalen-2-amine]
EC50 [1]: 2.69 nM | EC50 [2]: 0.134 nM | EC50 [3]: 1.01 nM | EC50 [4]: 2.2 nM
